{"source": "PubChem BioAssay AID1324", "about": "(NMMLSC, 2008)", "note": "Calls of active or inactive are those of the source. How the calls were made is not given here.", "data": [{"molecular_target": "glutathione S-transferase (GST-GSH binding)", "experiment": "GST–glutathione interaction disruption – biochemical, multiplex beads, flow cytometry, HPSMTB buffer, profiling panel (AID 1324);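 further: glutathione beads loaded with GST-green fluorescent protein and no fluorescent Bim peptide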", "settings": "multiplex bead flow cytometry, MCF", "values": [{"smiles": "CN1CCc2cccc3c2[C@@H]1Cc1ccc(O)c(O)c1-3", "EC50": "inactive"}, {"smiles": "COc1ccc2nc(-c3ccco3)c(-c3ccco3)nc2c1", "EC50": "inactive"}, {"smiles": "O=C(NCCO)c1ccc2nc(-c3ccco3)c(-c3ccco3)nc2c1", "EC50": "9.03 µM"}, {"smiles": "CN1CCN(c2ccc(N)cc2)CC1", "EC50": "inactive"}]}, {"molecular_target": "glutathione S-transferase (GST-GSH binding)", "experiment": "GST–glutathione interaction disruption – biochemical, multiplex beads, flow cytometry, HPSMTB buffer, profiling panel (AID 1324)", "settings": "multiplex bead flow cytometry, MCF, active compounds read high, concentration not given here", "values": [{"smiles": "CCOc1ccc(CNc2ccc(N3CCCC3)cc2)cc1", "percent span inhibition": "inactive"}, {"smiles": "CC(C)(C)C1CCC(=NNC(=O)c2cc3c(s2)CCCC3)CC1", "note": "(centres undefined)", "percent span inhibition": "inactive"}, {"smiles": "C=CCn1c(C)c(C(C)=O)c(N2CCOCC2)nc1=S", "percent span inhibition": "inactive"}, {"smiles": "c1ccc(C2=Nc3cccc4cccc(c34)N2)cc1", "percent span inhibition": "inactive"}, {"smiles": "O=C(Nc1ccccc1N1CCOCC1)c1cccs1", "percent span inhibition": "inactive"}, {"smiles": "Cc1nnc(Sc2cc(NCCO)c([N+](=O)[O-])c3nonc23)s1", "percent span inhibition": "inactive"}, {"smiles": "CC(C)(C)OC(=O)N1CCN(C(=O)[C@H](Cc2ccc(O)cc2)n2cc(CCO)nn2)CC1", "percent span inhibition": "inactive"}, {"smiles": "O=C(Nc1nccs1)c1ccc(COc2ccc(F)cc2)o1", "percent span inhibition": "inactive"}, {"smiles": "CCOc1cc(CNc2ccc(N3CCCCC3)cc2)cc(Br)c1OCC(=O)NC(C)(C)C", "percent span inhibition": "inactive"}, {"smiles": "CN(/N=C/c1cccnc1)C1=NS(=O)(=O)c2ccccc21", "percent span inhibition": "inactive"}, {"smiles": "Cc1cc(C)c(S(=O)(=O)/N=C2/C=C(SCC(=O)O)C(=O)c3ccccc32)cc1C", "percent span inhibition": "inactive"}, {"smiles": "COc1ccc(C2CN(C)CC2C(=O)c2ccc(F)cc2)cc1Cl", "note": "(centres undefined)", "percent span inhibition": "inactive"}, {"smiles": "CCn1cc(C=C2C(=O)c3ccccc3C2=O)c2ccccc21", "percent span inhibition": "inactive"}, {"smiles": "CCSc1ncc(Cl)c(C(=O)Nc2sc3c(c2C(=O)NCc2cccnc2)CCCC3)n1", "percent span inhibition": "inactive"}, {"smiles": "Cc1ccc(OCC(=O)NCc2ccccn2)c(Br)c1", "percent span inhibition": "inactive"}, {"smiles": "CCc1ccc(/C=C/C(=O)c2cc(Br)ccc(=O)c2O)cc1", "percent span inhibition": "inactive"}, {"smiles": "COC(=O)C1C2c3ccccc3OC1(C)N=c1s/c(=C/c3cnn(C)c3C)c(=O)n12", "note": "(centres undefined)", "percent span inhibition": "inactive"}, {"smiles": "COc1ccc(-c2nnc(SCC(=O)Nc3nc4ccccc4s3)n2C)cc1", "percent span inhibition": "inactive"}, {"smiles": "CCOc1cc(/C=N/NC(N)=O)ccc1OCC(=O)Nc1ccc(C)c(C)c1", "percent span inhibition": "inactive"}, {"smiles": "Nc1ccc(C2=Nc3cccc4cccc(c34)N2)cc1", "percent span inhibition": "inactive"}, {"smiles": "Fc1ccc(/C=C2\\CCCC3=C2NC(=S)NC3c2ccc(F)cc2)cc1", "note": "(centres undefined)", "percent span inhibition": "inactive"}, {"smiles": "COc1ccc(NC(=O)COc2ncnc3ccccc23)cc1S(=O)(=O)N1CCOCC1", "percent span inhibition": "inactive"}, {"smiles": "O=C(C[n+]1ccc(-c2nnc3n2CCC3)cc1)c1ccc(Cl)c(Cl)c1", "percent span inhibition": "inactive"}, {"smiles": "Cc1cccc(C(=O)N=c2c(C#N)cc3c(=O)n4cccc(C)c4nc3n2Cc2ccco2)c1", "percent span inhibition": "inactive"}, {"smiles": "CCOc1ccc(C(=O)Nc2nnn(CC)n2)cc1", "percent span inhibition": "inactive"}, {"smiles": "O=C1CSc2ccc(C(=O)Nc3cccc(S(=O)(=O)Nc4ccc(Br)cc4)c3)cc2N1", "percent span inhibition": "inactive"}, {"smiles": "Cc1cccc(N2CCN(C(=S)Nc3ccc4nc(N5CCN(C)CC5)cc(C)c4c3)CC2)c1C", "percent span inhibition": "inactive"}, {"smiles": "COC(=O)c1c(C(=O)OC)c2cccc3cc(-c4ccccc4)c4ccc1c4n32", "percent span inhibition": "inactive"}, {"smiles": "Cc1c(N2C(=O)c3ccc4c5c(ccc(c35)C2=O)CC4)c(=O)n(-c2ccccc2)n1C", "percent span inhibition": "inactive"}, {"smiles": "C/C(=N\\NC(=O)Cn1nc(C)c([N+](=O)[O-])c1C)c1ccc(O)cc1", "percent span inhibition": "inactive"}, {"smiles": "CCCC(=O)OCCNc1cc(Sc2nccn2C)c2nonc2c1[N+](=O)[O-]", "percent span inhibition": "inactive"}, {"smiles": "Cc1c(NC2=C(Cl)C(=O)N(c3ccccc3)C2=O)c(=O)n(-c2ccccc2)n1C", "percent span inhibition": "inactive"}, {"smiles": "COc1cccc(N2CC(C(=O)Nc3nnc(SCC(=O)c4ccccc4)s3)CC2=O)c1", "note": "(centres undefined)", "percent span inhibition": "inactive"}, {"smiles": "Cc1nc(NC(=O)CC(C)C)sc1-c1csc(Nc2ccc(Cl)cc2)n1", "percent span inhibition": "inactive"}, {"smiles": "CN1/C(=C\\C(=O)Nc2ccc(Cl)cc2)C(C)(C)c2ccccc21", "percent span inhibition": "inactive"}, {"smiles": "NC(=O)c1c(NC(=O)C2CCCO2)sc2c1CCCCC2", "note": "(centres undefined)", "percent span inhibition": "inactive"}, {"smiles": "CCOC(=O)c1cc2c(=O)n3cccc(C)c3nc2n(Cc2ccco2)c1=NC(=O)c1ccccc1", "percent span inhibition": "inactive"}, {"smiles": "CCN(CC)c1ccc(-c2nn3c(-c4ccccc4OC)nnc3s2)cc1", "percent span inhibition": "inactive"}, {"smiles": "CCN1/C(=C/C(C)=C/c2sc3ccccc3[n+]2CC)Sc2ccccc21", "percent span inhibition": "inactive"}, {"smiles": "COC(=O)CSc1nccc(-c2cccs2)n1", "percent span inhibition": "inactive"}, {"smiles": "O=C(CNC(=O)c1ccco1)NCC(=O)OCc1ccccc1Br", "percent span inhibition": "inactive"}, {"smiles": "O=C(Cn1c2ccccc2c(=O)c2ccccc21)N/N=C/c1ccc(N2CCCC2)c([N+](=O)[O-])c1", "percent span inhibition": "inactive"}, {"smiles": "COc1ccc(N2C(=O)C(Cl)=C(Oc3cccc(OC)c3)C2=O)cc1", "percent span inhibition": "inactive"}, {"smiles": "Cc1ccc(-c2cc(-c3ccc4c(c3)OCO4)c(C#N)c(N)n2)o1", "percent span inhibition": "inactive"}, {"smiles": "Fc1ccccc1-n1cc(-c2ccccc2)[nH]c1=S", "percent span inhibition": "inactive"}, {"smiles": "COc1cc(NC(=S)NCCCO)c(OC)cc1Cl", "percent span inhibition": "inactive"}, {"smiles": "Cc1cc(NC(=O)CCCC(=O)NCc2ccccc2)no1", "percent span inhibition": "inactive"}, {"smiles": "CN(C)C(Cc1ccccc1)C(=O)c1cccs1", "note": "(centres undefined)", "percent span inhibition": "inactive"}, {"smiles": "S=C1NC2=C(CCC/C2=C\\c2ccccc2)C(c2ccccc2)N1", "note": "(centres undefined)", "percent span inhibition": "inactive"}, {"smiles": "COc1ccc(-n2cc(-c3ccc(OC)c(OC)c3)[nH]c2=S)cc1", "percent span inhibition": "inactive"}, {"smiles": "COc1ccc(CN(C)CC(=O)NC(C)c2ccccc2)c(OC)c1", "note": "(centres undefined)", "percent span inhibition": "inactive"}, {"smiles": "COc1ccc(CC(=O)Nc2ccc(-c3nc4cc(C)ccc4o3)c(O)c2)cc1OC", "percent span inhibition": "inactive"}, {"smiles": "CN(C(=O)NC1CCCCC1)c1ccccc1", "percent span inhibition": "inactive"}, {"smiles": "CCC(=O)OCCNc1cc(Sc2nccn2C)c2nonc2c1[N+](=O)[O-]", "percent span inhibition": "inactive"}, {"smiles": "Cc1ccnc(NS(=O)(=O)c2ccc(NC(=O)c3c(-c4ccccc4Cl)noc3C)cc2)n1", "percent span inhibition": "inactive"}, {"smiles": "Cc1ccc(NS(=O)(=O)c2cc(NC(=O)c3ccc4c(c3)NC(=O)CS4)ccc2C)c(C)c1", "percent span inhibition": "inactive"}, {"smiles": "Cc1ccc(-c2cc(-c3ccc(Cl)cc3)c(C#N)c(N)n2)o1", "percent span inhibition": "inactive"}, {"smiles": "COc1cccc(/C=C2/SC(=O)N(C)C2=O)c1OCc1ccc(C(=O)O)cc1", "percent span inhibition": "inactive"}, {"smiles": "CCC(CC)C(=O)Nc1cccc(S(=O)(=O)c2cccc(NC(=O)C(CC)CC)c2)c1", "percent span inhibition": "inactive"}, {"smiles": "CN(C)CCNC(=O)C(=O)C1C(=O)Nc2ccccc21", "note": "(centres undefined)", "percent span inhibition": "inactive"}, {"smiles": "S=c1[nH]cc(-c2ccccc2)n1-c1ccccc1Cl", "percent span inhibition": "inactive"}, {"smiles": "Cc1nc(=S)c2ccccc2[nH]1", "percent span inhibition": "inactive"}, {"smiles": "O=C(O)CCN1C(=O)/C(=C\\c2ccc(-c3nc4ccccc4s3)o2)SC1=S", "percent span inhibition": "inactive"}, {"smiles": "CCOCCCn1c(N)c(C(=O)Nc2sc3c(c2C(=O)OC)CCCC3)c2nc3ccccc3nc21", "percent span inhibition": "inactive"}, {"smiles": "COc1cc2nc(=S)n(CCCN3CCOCC3)c(N)c2cc1OC", "percent span inhibition": "inactive"}, {"smiles": "COc1cccc2c(SCC(=O)N/N=C/c3ccc(O)c(O)c3)cc(C)nc12", "percent span inhibition": "inactive"}, {"smiles": "COc1ccccc1N(C)S(=O)(=O)c1ccc(C(=O)OCC(N)=O)cc1", "percent span inhibition": "inactive"}, {"smiles": "CCOC(=O)/C(=C\\c1cccc(O)c1)c1nc2sc(C)c(C)c2c(=O)[nH]1", "percent span inhibition": "inactive"}, {"smiles": "Cc1cc(OCc2cn3cccnc3n2)ccc1Cl", "percent span inhibition": "inactive"}, {"smiles": "CCNC(=O)N1c2ccc(OCC)cc2C(C)=CC1(C)C", "percent span inhibition": "inactive"}, {"smiles": "Cc1cc(C)c2nc3nc(C)c(C)cc3c(N)c2c1", "percent span inhibition": "inactive"}, {"smiles": "Cc1cc(C)c2nc3nc(C)cc(C)c3c(N)c2c1", "percent span inhibition": "inactive"}, {"smiles": "COc1cc(CNc2ccc(N3CCCC3)cc2)cc(Cl)c1OC", "percent span inhibition": "inactive"}, {"smiles": "CCn1c(C)nc2cc(C(=O)N/N=C/c3ccc(O)c(O)c3O)ccc21", "percent span inhibition": "inactive"}, {"smiles": "Cc1nc2ncccn2c1-c1csc(Nc2ccccc2)n1", "percent span inhibition": "inactive"}, {"smiles": "O=C(c1ccccc1)c1ccc2nc(-c3ccco3)c(-c3ccco3)nc2c1", "percent span inhibition": "inactive"}, {"smiles": "O=C(COCC(=O)NCc1ccccc1)NCc1ccccc1", "percent span inhibition": "inactive"}, {"smiles": "CCOc1ccc(-n2cc(-c3ccc(OC)c(OC)c3)[nH]c2=S)cc1", "percent span inhibition": "inactive"}, {"smiles": "Cc1nc2ccccc2n1CSc1ccccc1", "percent span inhibition": "inactive"}, {"smiles": "CN1C2C=C3C(C#N)=C(N)C(C#N)(C#N)[C@@H](c4ccsc4)[C@@H]3C1CC2", "note": "(some centres undefined)", "percent span inhibition": "inactive"}, {"smiles": "Cn1c(=O)c(C(=O)COC(=O)c2cc(-c3ccco3)nc3ccccc23)c(N)n(Cc2ccccc2)c1=O", "percent span inhibition": "inactive"}, {"smiles": "Cc1ccc(-c2cc(C(=O)N3CCN(c4ncccn4)CC3)c3cc(Br)ccc3n2)o1", "percent span inhibition": "inactive"}, {"smiles": "CCN1CCN(c2ccc(NC(=O)c3cccc4ncccc34)cc2)CC1", "percent span inhibition": "inactive"}, {"smiles": "O=C1c2ccccc2-c2onc3ccc(N4CCCC4)c1c23", "percent span inhibition": "inactive"}, {"smiles": "Cc1ccc(C)n1-c1cccc(C(=O)O)c1", "percent span inhibition": "inactive"}, {"smiles": "CCOc1ccc(C(=O)Nc2nnc(NC(=S)Nc3ccccc3)s2)cc1", "percent span inhibition": "inactive"}, {"smiles": "O=C(NCCCN1CCN(CCCNC(=O)c2cc([N+](=O)[O-])ccc2Cl)CC1)c1cc([N+](=O)[O-])ccc1Cl", "percent span inhibition": "inactive"}, {"smiles": "Cc1cc(-c2nn(-c3ccccc3)cc2/C=C2\\SC(N)=NC2=O)ccc1OC(C)C", "percent span inhibition": "inactive"}, {"smiles": "CCN(CC)c1ccc(NC(=O)COc2ccccc2C)cc1S(=O)(=O)Nc1ccccc1OC", "percent span inhibition": "inactive"}, {"smiles": "CCN1CCN(c2cc(C)c3cc(NC(=S)N4CCCCC4)ccc3n2)CC1", "percent span inhibition": "inactive"}, {"smiles": "CC(NCc1ccc(-c2ccccc2)cc1)C(O)c1ccccc1", "note": "(centres undefined)", "percent span inhibition": "inactive"}, {"smiles": "CNC(=S)N/N=C/C1=CCC2CC1C2(C)C", "note": "(centres undefined)", "percent span inhibition": "inactive"}, {"smiles": "N#Cc1ccc(N=c2ssnc2Cl)cc1", "percent span inhibition": "inactive"}, {"smiles": "NC(=O)c1c(N)sc2c1CCCCC2", "percent span inhibition": "inactive"}, {"smiles": "CNc1ccc(Br)cc(C(=O)/C=C/c2cc(OC)ccc2OC)c1=O", "percent span inhibition": "inactive"}]}]}
